Tests used:
Format in all cases: in vivo
[1] = tested on: Two-Spotted Spider Mite (Tetranychus urticae); experiment: Two-spotted spider mite (Tetranychus urticae) spray test on kidney bean; conditions: after 7 days
Experimental: (§1) Unless not mentioned otherwise, the test solutions were prepared as follows:
(§2) Solvent: 3 parts by weight Dimethylformamide
(§3) Emulsifier: 1 part by weight Polyoxyethylene alkyl phenyl ether
(§4) In order to make an appropriate formulation of an active compound, 1 part by weight of the active compound is mixed with the above mentioned amount of solvent and emulsifier and the mixture is diluted with water to a prescribed concentration. Ammonium salt or ammonium salt and penetration enhancer in a dosage of 1000 ppm are added to the desired concentration if necessary.
50 to 100 adult mites of Tetranychus urticae were inoculated to leaves of kidney bean at two-leaf stage planted in a pot of 6 cm in diameter. After one day, test solution at the appropriate concentration was sprayed thereon in a sufficient amount using a spray gun. After the spraying, the plant pot was placed inside a greenhouse, and after 7 days, the acaricidal activity was calculated. An acaricidal activity of 100% means that all mites were killed, whereas an acaricidal activity of 0% means that no mite was killed.

[2] = tested on: Cucurbit Leaf Beetle (Aulacophora femoralis); experiment: Cucurbit leaf beetle (Aulacophora femoralis) cucumber leaf dip test; conditions: active compound concentration 20 ppm; after 7 days
Experimental: as §1, §2, §3, §4
Leaves of cucumber were immersed in the test solution at the appropriate concentration, and the leaves were dried in air. The leaves were then put in a plastic cup containing sterilized black soil and five Aulacophora femoralis at second instar larvae were released in the cup. The cups were placed in a temperature-controlled chamber at 25° C. After 7 days, the number of dead larvae was counted, and thus the insecticidal activity was calculated. An insecticidal activity of 100% means that all larvae were killed, whereas an insecticidal activity of 0% means that no larva was killed.

[3] = tested on: Larvae of Spodoptera litura; experiment: Larvae of Spodoptera litura, method using artificial feeds; conditions: artificial feed, after 7 days
Experimental: as §1, §2, §3, §4
[A Method Using Artificial Feeds (Trade Name: Insecta LFM, Manufactured by Nosan Corporation)]
Powdery artificial feeds (2.3 g) were added to a plastic cup (diameter: 7.5 cm, height: 4 cm) to achieve a certain thickness. Water-diluted liquid (5 ml) of the active compound prepared above having predetermined concentration was evenly poured thereto and allowed to stand until the feeds were solidified. Five of the 3rd-instar larvae of Spodoptera litura were released in respective cups, and covered. The cups were put in a temperature controlled room at 25° C. and humidity of 50 to 60%, and the number of dead larvae after 7 days was determined to calculate the pesticidal ratio. 100% pesticidal ratio means death of all the larvae, while 0% pesticidal ratio means no dead larvae.

[4] = active compound concentration 20 ppm
[5] = active compound concentration 4 ppm

| Compound | acaricidal activity [1, 4] [%] | insecticidal activity [2] [%] | insecticidal activity (pesticidal ratio) [3, 4] [%] | acaricidal activity [1, 5] [%] | insecticidal activity (pesticidal ratio) [3, 5] [%] | pest or weed control at 20 ppm ([1]; Tetranychus urticae, 168 h, active compound concentration 20 ppm, read-out: acaricidal activity) [%] | pest or weed control at 20 ppm ([3]; Spodoptera litura, 168 h, active compound concentration 20 ppm, read-out: insecticidal activity (pesticidal ratio)) [%] |
| --- | --- | --- | --- | --- | --- | --- | --- |
| CS(=O)(=O)CC(=O)NCc1ccc(N2CCC(c3cc(Cl)c(Cl)c(Cl)c3)(C(F)(F)F)C2O)cc1C(F)(F)F (mixture of isomers) [A1-55] | 100 | 100 | 100 | – | – | – | – |
| Cc1cc(N2CCC(c3cc(Cl)c(Cl)c(Cl)c3)(C(F)(F)F)C2O)ccc1CNC(=O)C1CC1 (mixture of isomers) [A1-132] | 100 | 100 | 100 | – | – | – | – |
| CCC(=O)NCc1ccc(N2CCC(c3cc(Cl)c(Cl)c(Cl)c3)(C(F)(F)F)C2O)cc1F (mixture of isomers) [A1-151] | 100 | 100 | 100 | – | – | – | – |
| O=C(NCc1ccc(N2CCC(c3cc(Cl)c(Cl)c(Cl)c3)(C(F)(F)F)C2O)cc1F)C1CC1 (mixture of isomers) [A1-154] | 100 | 100 | 100 | – | – | – | – |
| CC(=O)NCc1ccc(N2CCC(c3cc(Cl)c(Cl)c(Cl)c3)(C(F)(F)F)C2O)cc1Br (mixture of isomers) [A1-161] | 100 | 100 | 100 | – | – | – | – |
| CC(=O)NC(C)c1ccc(N2CCC(c3cc(Cl)c(Cl)c(Cl)c3)(C(F)(F)F)C2O)cc1 (mixture of isomers) [A2-12] | 100 | – | 100 | – | – | – | – |
| COCCC(=O)NCc1ccc(N2CCC(c3cc(Cl)cc(Cl)c3)(C(F)(F)F)C2O)cc1Cl (stereo not drawn) [A1-8] | 100 | 100 | – | – | – | – | – |
| CC(=O)NCc1ccc(N2CCC(c3cc(Cl)c(Cl)c(Cl)c3)(C(F)(F)F)C2O)cc1Cl (stereo not drawn) [A1-12] | 100 | – | 100 | – | – | – | – |
| CCCC(=O)NCc1ccc(N2CCC(c3cc(Cl)cc(Cl)c3)(C(F)(F)F)C2O)cc1C(F)(F)F (stereo not drawn) [A1-36] | 100 | – | 100 | – | – | – | – |
| O=C(CC1CC1)NCc1ccc(N2CCC(c3cc(Cl)cc(Cl)c3)(C(F)(F)F)C2O)cc1C(F)(F)F (stereo not drawn) [A1-39] | 100 | 100 | – | – | – | – | – |
| COCCC(=O)NCc1ccc(N2CCC(c3cc(Cl)cc(Cl)c3)(C(F)(F)F)C2O)cc1C(F)(F)F (stereo not drawn) [A1-41] | 100 | – | 100 | – | – | – | – |
| CC(=O)NCc1ccc(N2CCC(c3cc(Cl)c(Cl)c(Cl)c3)(C(F)(F)F)C2O)cc1C(F)(F)F (stereo not drawn) [A1-45] | 100 | – | 100 | – | – | – | – |
| N#CCC(=O)NCc1ccc(N2CCC(c3cc(Cl)c(Cl)c(Cl)c3)(C(F)(F)F)C2O)cc1Br (stereo not drawn) [A1-525] | – | – | – | 100 | 100 | – | – |
| CCC(=O)NCc1ccc(N2CCC(c3cc(Cl)c(Cl)c(Cl)c3)(C(F)(F)F)C2O)nc1C (stereo not drawn) [A3-79, N-({6-[2-hydroxy-3-(3,4,5-trichlorophenyl)-3-(trifluoromethyl)-pyrrolidin-1-yl]-2-methylpyridin-3-yl}methyl)propanamide] | – | – | – | – | – | 100 | 100 |
| CC(C)CC(=O)NCc1ccc(N2CCC(c3cc(Cl)c(Cl)c(Cl)c3)(C(F)(F)F)C2O)nc1C(F)(F)F (stereo not drawn) [A3-288] | 100 | – | 100 | 100 | 100 | – | – |
| CCNC(=O)NCc1ccc(N2CCC(c3cc(Cl)c(Cl)c(Cl)c3)(C(F)(F)F)C2O)nc1C(F)(F)F (stereo not drawn) [A3-297] | 100 | – | 100 | 100 | 100 | – | – |
| CC(=O)NCc1ccc(N2CCC(c3cc(Cl)c(F)c(Cl)c3F)(C(F)(F)F)C2O)nc1Br (stereo not drawn) [A3-322] | 98 | – | – | – | 100 | – | – |
| N#CCC(=O)NCc1ccc(N2CCC(c3cc(Cl)c(Cl)c(Cl)c3)(C(F)(F)F)C2O)nc1C(F)(F)F (stereo not drawn) [A3-421] | 100 | – | – | – | 100 | – | – |

Reference: patent US9375000B2, “Pesticidal arylpyrrolidines” (Bayer Intellectual Property GmbH, priority 2011, dated 2016)
